From patent US10543213B2, “Treatment of relapsed and/or refractory solid tumors and non-hodgkin's lymphomas” (Celgene Quanticel Research, Inc., priority 2016, dated 2020)
Where two headings read alike, the source gives them in different places.

How the values were obtained:
human LSD-1 = human LSD-1 (Homo sapiens (Human), UniProt O60341); experiment: In vitro enzyme inhibition assay LSD-1 (TR-FRET); format: biochemical; details: H3K4me1-biotin labeled peptide
Excerpt: This assay determines the ability of a test compound to inhibit LSD-1 demethylase activity.
The enzymatic assay of LSD-1 activity is based on Time Resolved-Fluorescence Resonance Energy Transfer (TR-FRET) detection.

LXFS 573 SCLC PDX [1] = test system: LXFS 573 SCLC PDX
[2] = test system: Salmonella typhimurium TA98 and TA100 strains; experiment: Bacterial reverse mutation assay; format: cell-based; details: up to 500 μg/mL, presence and absence of S9
LXFS 573 SCLC PDX [3] = experiment: Efficacy in LXFS 573 SCLC PDX model; format: in vivo, female immunodeficient NMRI-Foxn1nu mice; details: 5, 7.5, 10 mg/kg oral
NCI-H1417 SCLC xenograft = experiment: Efficacy in NCI-H1417 SCLC xenograft model; format: in vivo, female athymic nude mice
[4] = Pharmacokinetics following IV and oral administration, rats; format: in vivo, Sprague Dawley rats; details: IV dosing
LXFS 615 SCLC PDX = experiment: Efficacy in LXFS 615 SCLC PDX model; format: in vivo, female immunodeficient NMRI-Foxn1nu mice; details: 5 mg base/kg oral for 30 days
LXFS 1129 SCLC PDX = experiment: Efficacy in LXFS 1129 SCLC PDX model; format: in vivo, female immunodeficient NMRI-Foxn1nu mice; details: 1.5 and 5 mg base/kg QD for 30 days
[5] = Pharmacokinetics following IV and oral administration, mice; format: in vivo, CD-1 mice; details: Mouse, Female, single oral dose 10 mg base/kg
[6] = 4-week oral gavage pivotal toxicity study with 4-week recovery in dogs; format: in vivo, Beagle dogs
[7] = Exploratory toxicity study in mice; format: in vivo, CD-1 mice; details: for reduction in neutrophil counts vs concurrent controls: 60 mg/kg/dose QOD
Excerpt: Additional animals were included for TK evaluation.

MKL-1 hMCC xenograft = format: in vivo; details: 5 mg/kg 5 on/2 off
[8] = 4-week toxicity study (no recovery period) in dogs; details: Q2W administration, not determined
[9] = Hemodynamic and ECG parameters in anesthetized guinea pigs; format: in vivo, male Dunkin Hartley guinea pigs
Excerpt: Animals were monitored throughout the experiment.

[10] = Pharmacokinetics across species (statements covering several species); format: in vivo, mice, rats, dogs, and monkeys; details: plasma; for half-life: intravenous; for bioavailability: po
Experimental: Disparate half-lives were noted between rodents and non-rodents with values ranging from either 2 to 4 hours in rodents or from 12 to 20 hours in non-rodents.

LU2514 SCLC PDX = format: in vivo
Experimental: Tumor growth inhibition analysis was performed on Day 28 post treatment, the last day of dosing.

[11] = 4-week toxicity study with 4-week recovery in mice; details: 25 mg base/kg/dose QOD×3 weekly, males
[12] = Excretion in bile duct cannulated rats; format: in vivo; details: IV, 24-hour period post dosing
CYP2C9 = CYP2C9 (Homo sapiens (Human), UniProt P11712); experiment: CYP inhibition in pooled human liver microsomes, CYP2C9; format: in vitro ADME; details: up to 50 μM
CYP2C9, sequence (P11712 whole entry): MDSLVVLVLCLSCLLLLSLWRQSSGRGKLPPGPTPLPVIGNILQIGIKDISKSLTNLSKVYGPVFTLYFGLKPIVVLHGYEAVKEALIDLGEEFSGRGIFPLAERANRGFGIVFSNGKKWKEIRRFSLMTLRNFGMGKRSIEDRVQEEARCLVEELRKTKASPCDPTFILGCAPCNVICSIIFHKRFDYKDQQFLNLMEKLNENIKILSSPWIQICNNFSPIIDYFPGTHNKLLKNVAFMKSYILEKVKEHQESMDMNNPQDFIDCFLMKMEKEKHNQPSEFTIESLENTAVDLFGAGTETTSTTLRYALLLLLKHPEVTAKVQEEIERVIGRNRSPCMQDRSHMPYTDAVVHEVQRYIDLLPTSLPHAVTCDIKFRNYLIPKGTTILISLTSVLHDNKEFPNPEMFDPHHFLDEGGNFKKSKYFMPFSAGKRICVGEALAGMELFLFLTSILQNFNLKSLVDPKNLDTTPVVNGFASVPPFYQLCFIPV

[13] = Exploratory toxicity study in dogs; format: in vivo, Beagle dogs
[14] = dog, in vivo
[15] = molecular target: MDR1(human P-gp)-MDCK cells (Homo sapiens (Human), UniProt P08183); experiment: Permeability in MDR1-MDCK cells; format: in vitro ADME
MDR1(human P-gp)-MDCK cells, sequence (P08183 whole entry): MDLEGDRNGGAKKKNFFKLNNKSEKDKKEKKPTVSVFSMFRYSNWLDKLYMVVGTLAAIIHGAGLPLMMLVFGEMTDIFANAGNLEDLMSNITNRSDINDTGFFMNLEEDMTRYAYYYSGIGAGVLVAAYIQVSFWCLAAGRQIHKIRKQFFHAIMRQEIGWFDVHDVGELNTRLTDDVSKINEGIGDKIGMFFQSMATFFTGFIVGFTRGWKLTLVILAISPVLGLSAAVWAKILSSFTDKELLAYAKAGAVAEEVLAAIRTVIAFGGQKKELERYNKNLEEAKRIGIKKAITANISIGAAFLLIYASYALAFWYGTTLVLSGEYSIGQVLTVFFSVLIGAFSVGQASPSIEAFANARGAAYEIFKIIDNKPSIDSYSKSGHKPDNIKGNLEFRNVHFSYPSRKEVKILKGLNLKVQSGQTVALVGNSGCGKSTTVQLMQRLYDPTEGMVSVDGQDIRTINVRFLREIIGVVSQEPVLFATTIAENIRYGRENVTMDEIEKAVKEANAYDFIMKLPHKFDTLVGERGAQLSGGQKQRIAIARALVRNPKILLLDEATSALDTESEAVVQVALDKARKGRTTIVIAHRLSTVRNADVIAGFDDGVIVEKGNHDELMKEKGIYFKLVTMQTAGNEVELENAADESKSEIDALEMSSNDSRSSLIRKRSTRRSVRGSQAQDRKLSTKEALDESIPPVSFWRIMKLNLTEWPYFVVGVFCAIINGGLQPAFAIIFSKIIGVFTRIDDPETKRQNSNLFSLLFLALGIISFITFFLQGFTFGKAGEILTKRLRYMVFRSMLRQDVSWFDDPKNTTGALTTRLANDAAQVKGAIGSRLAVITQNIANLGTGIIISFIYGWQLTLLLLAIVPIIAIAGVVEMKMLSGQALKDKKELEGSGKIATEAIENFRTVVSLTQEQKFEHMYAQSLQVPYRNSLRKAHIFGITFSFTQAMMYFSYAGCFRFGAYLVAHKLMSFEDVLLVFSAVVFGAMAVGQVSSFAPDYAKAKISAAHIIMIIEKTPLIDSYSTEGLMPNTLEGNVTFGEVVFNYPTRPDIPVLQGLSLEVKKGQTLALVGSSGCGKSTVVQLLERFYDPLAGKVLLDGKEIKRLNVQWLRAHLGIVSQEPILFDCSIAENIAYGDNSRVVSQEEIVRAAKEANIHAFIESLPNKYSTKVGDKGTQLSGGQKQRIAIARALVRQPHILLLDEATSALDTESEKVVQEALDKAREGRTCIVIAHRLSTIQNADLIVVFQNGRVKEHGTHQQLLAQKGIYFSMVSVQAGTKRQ

P-gp (human MDR1) = P-gp (human MDR1) (Homo sapiens (Human), UniProt P08183); experiment: Permeability in MDR1-MDCK cells; format: in vitro ADME; details: dog
P-gp (human MDR1), sequence (P08183 whole entry): as above

MS-1 hMCC xenograft = format: in vivo; details: 5 mg/kg 5 on/2 off; Day 36 minus Day -3
[16] = Metabolism in cryopreserved primary hepatocytes; format: in vitro ADME; details: hepatocytes of mouse, rat, dog, monkey, human
[17] = test system: recombinant human CYP enzymes; experiment: CYP reaction phenotyping with recombinant human CYP enzymes; format: in vitro ADME
Excerpt: The role of non-CYP enzymes in the metabolism of Compound A is yet to be ascertained.

CYP2D6 = CYP2D6 (Homo sapiens (Human), UniProt P10635); experiment: CYP inhibition in pooled human liver microsomes, CYP2D6; format: in vitro ADME; details: up to 50 μM
CYP2D6, sequence (P10635 whole entry): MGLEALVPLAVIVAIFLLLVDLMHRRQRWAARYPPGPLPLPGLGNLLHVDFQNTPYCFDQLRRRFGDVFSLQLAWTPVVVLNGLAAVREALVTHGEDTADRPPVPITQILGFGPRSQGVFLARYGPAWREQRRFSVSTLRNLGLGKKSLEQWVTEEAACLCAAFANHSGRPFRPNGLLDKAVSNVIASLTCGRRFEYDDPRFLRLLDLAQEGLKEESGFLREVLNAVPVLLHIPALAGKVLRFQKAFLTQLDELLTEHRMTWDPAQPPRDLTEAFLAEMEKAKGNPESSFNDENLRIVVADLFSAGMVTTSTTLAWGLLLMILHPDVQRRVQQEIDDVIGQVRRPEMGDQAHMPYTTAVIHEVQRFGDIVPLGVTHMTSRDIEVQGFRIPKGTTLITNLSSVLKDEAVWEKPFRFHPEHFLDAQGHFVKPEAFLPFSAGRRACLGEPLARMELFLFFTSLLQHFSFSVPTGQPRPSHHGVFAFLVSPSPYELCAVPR

[18] = Etoposide at 24 mg/kg/day SC days 1-3 + Vehicle
[19] = etoposide monotherapy 24 mg/kg SC
[20] = after escalating IV doses up to 20 mg base/kg
[21] = CD-1, Sprague Dawley, mouse, rat, rodents

## CCn1c(N2CCC(N)CC2)nc(-c2ccc(C#N)c(F)c2)cc1=O [Example 13, 4-[2-(4-amino-piperidin-1-yl)-1-ethyl-6-oxo-1,6-dihydro-pyrimidin-4-yl]-2-fluoro-benzonitrile]
Human LSD-1
  IC50: 100 to 1000 nM

## COc1cc([C@@H]2c3cc4c(cc3[C@@H](O[C@@H]3O[C@@H]5CO[C@@H](C)O[C@H]5[C@H](O)[C@H]3O)[C@H]3COC(=O)[C@H]23)OCO4)cc(OC)c1O [Etoposide, etoposide, reference compound]
LXFS 573 SCLC PDX [1]; [18]
  % TGD: 50%
  T-C: 21 days
  median TTE: 63 days
LXFS 573 SCLC PDX [1]; Etoposide at 24 mg/kg/day SC days 1-3 + Vehicle, Day 133, N=8
  SS number of study survivors: 0 (na)
LXFS 573 SCLC PDX [1]; [19]
  % TGD: 50%
  TGD: 21 days
  median TTE: 63 days

## N#Cc1ccc(-c2cc(=O)n(CC3CC3)c(N3CCC(N)CC3)n2)cc1F [Example 109, 4-[2-(4-amino-piperidin-1-yl)-1-cyclopropylmethyl-6-oxo-1,6-dihydro-pyrimidin-4-yl]-2-fluoro-benzonitrile]
Human LSD-1
  IC50: 100 to 1000 nM

## N#Cc1ccc(-c2cc(=O)n(CCCO)c(N3CCC(N)CC3)n2)cc1F [Example 17, 4-[2-(4-amino-piperidin-1-yl)-1-(3-hydroxy-propyl)-6-oxo-1,6-dihydro-pyrimidin-4-yl]-2-fluoro-benzonitrile]
Human LSD-1
  IC50: 100 to 1000 nM

## Cn1c(N2CCC(N)CC2)nc(-c2ccncc2)c(-c2ccc3c(ccn3C)c2)c1=O [Example 116, 2-(4-amino-piperidin-1-yl)-3-methyl-5-(1-methyl-1H-indol-5-yl)-6-pyridin-4-yl-3H-pyrimidin-4-one]
Human LSD-1
  IC50: 100 to 1000 nM

## COc1ccc(-c2c(-c3ccc(C#N)c(F)c3)nc(N3CCC(N)CC3)n(C)c2=O)cc1F [Compound A, 4-[2-(4-amino-piperidin-1-yl)-5-(3-fluoro-4-methoxy-phenyl)-1-methyl-6-oxo-1,6-dihydro-pyrimidin-4-yl]-2-fluoro-benzonitrile]
[2]
  mutagenicity: negative
LXFS 573 SCLC PDX [3]
  mean body weight losses: ≤ 3%
NCI-H1417 SCLC xenograft; 2.5 mg base/kg PO QDx65
  mean body weight gain by the end of study: 1%
NCI-H1417 SCLC xenograft; 5 mg base/kg PO QDx65
  mean body weight gain by the end of study: 7.5%
NCI-H1417 SCLC xenograft; 2.5 and 5 mg base/kg groups together, end of study
  tumors from treated animals regressed in net volume: 14 out of 15
NCI-H1417 SCLC xenograft; 2.5 or 5 mg base/kg PO QDx65
  tolerability: well tolerated
[4]
  systemic clearance: greater than liver blood flow
LXFS 615 SCLC PDX
  mean body weight losses: < 1%
LXFS 1129 SCLC PDX
  mean body weight losses: < 6%
[5]
  AUClast: 2007 ng·h/mL
[6]; 0.375 to 1.5 mg base/kg weekly
  cause of moribund condition: gastric mucosal ulceration and/or acute inflammation
[6]; dog, in vivo
  accumulation after multiple dosing: No accumulation
  platelet count: mildly to markedly decreased
[6]; female, Beagle, dog, in vivo, po
  AUC0-168: 435 ng·h/mL
[6]; male, Beagle, dog, in vivo, po
  Cmax: 17.2 ng/mL
[6]; not determined
  HNSTD and NOAEL for the QW or BIW dose schedule: < 0.375 mg base/kg/dose
[6]; weekly oral, 1 male 0.375 QW, 2 males and 1 female 0.75, 3 males and 4 females 1.5 mg base/kg/dose, Days 13 to 23
  moribund euthanasia: 11 animals
[7]; 10 mg/kg/day 5 days on/2 days off
  increase in platelets on Day 8 compared with the end of the first dosing period: > 2 fold
[7]; females
  reduction in neutrophil counts vs concurrent controls: 66%
[7]; males
  reduction in neutrophil counts vs concurrent controls: 83%
[7]; 5 days on/2 days off schedule
  greatest reduction in neutrophil counts vs concurrent controls and pre-study values: approximately 90%
[7]; all dose levels, end of the study
  circulating platelets: reduced
[7]; mice
  accumulation upon repeat dosing: no accumulation
MKL-1 hMCC xenograft
  Median Tumor Volumes Day 15: 880 mm^3
[8]
  NOAEL: < 0.5 mg base/kg/dose
[9]; 10 mg base/kg IV
  maximum increase of QTcB interval vs time-matched vehicle: approximately 9%
[9]; 15 mg base/kg IV
  maximum increase of QTcB interval vs time-matched vehicle: ~13%
[9]; 20 mg base/kg IV
  maximum increase of QTcB interval vs time-matched vehicle: ~16%
[9]; 20 mg base/kg IV, 9 minutes into the 10-minute infusion
  decrease in HR, maximum suppression as compared with vehicle: 19%
[9]; 5-20 mg base/kg IV vs time-matched vehicle
  effect in MAP or its components: No notable effect
[9]; IV administration
  NOAEL for hemodynamic and ECG endpoints: 10 mg base/kg
[9]; [20]
  QTcB interval increase at the end of the monitoring period: 10%
  heart rate decrease at the end of the monitoring period: 18%
[10]; Beagle, Cynomolgus, dog, monkey, non-rodents
  half-life: 720 to 1200 min
[10]; Beagle, dog, cynomolgus monkey, dogs and monkeys
  bioavailability: 82 to 100%
[10]; CD-1, Sprague Dawley, Beagle, mouse, rat, dog, cynomolgus monkey, oral dosing, mice, rats, dogs, and monkeys, read-out: median time to peak plasma concentration (tmax)
  Tmax: 0.5 to 6 h
[10]; [21]
  half-life: 120 to 240 min
  bioavailability: 28 to 74%
LU2514 SCLC PDX; both LU2514 studies
  tolerability: well tolerated
LU2514 SCLC PDX; mouse, in vivo
  mean body weight losses: < 10%
[11]
  mean steady state AUC0-24: 17,800 ng·hr/mL
[12]
  dose excreted intact (urine and bile): 26.3 % of the dose
  dose excreted intact in urine: 8.5 % of dose
CYP2C9
  direct inhibitory effect: little to no direct inhibitory effect
[13]; 0.25 mg/kg/dose QOD
  treatment-related effects: generally no Compound A-related effects
[13]; QOD schedule
  accumulation after repeat dosing: no accumulation
[14]
  accumulation after multiple doses: No accumulation
[14]; female, Beagle, po, 0.25 mg/kg
  AUC0-96: 343 ng·h/mL
  Cmax: 12.1 ng/mL
[14]; female, Beagle, po, 0.5 mg/kg
  AUC0-96: 729 ng·h/mL
[15]
  P-gp substrate status: P-gp substrate
P-gp (human MDR1); MDCK-MDR1, A→B direction
  Papp: 0.5 ×10⁻⁶ cm/s
P-gp (human MDR1); MDCK-MDR1, B→A direction
  Papp: 16.5 ×10⁻⁶ cm/s
MS-1 hMCC xenograft
  Median Tumor Volumes Diff: 80 mm^3
[16]
  metabolic stability: greater in rat and dog followed by human and monkeys while being least stable in mouse hepatocytes
[17]
  CYP enzyme responsible for oxidative metabolism: CYP3A4 appears to be predominantly responsible
CYP2D6
  direct inhibitory effect: little to no direct inhibitory effect

## Cn1c(N2CCC(N)CC2)nc(-c2ccc(C#N)c(F)c2)c(-c2ccc(C(=O)O)cc2)c1=O [Example 39, 4-[2-(4-aminopiperidyl)-6-(4-cyano-3-fluorophenyl)-3-methyl-4-oxo-3-hydropyrimidin-5-yl] benzoic acid]
Human LSD-1
  IC50: 100 to 1000 nM
